Test results: article PMC9299836 (eLife, 2022)
“And” between values parts separate entries of the source, which are not always exact repeats. Equal values may be shown once.

Key:
[1] = molecular target: T1, mGluR2 (Mus musculus, UniProt Q14BI2); test: Live-cell FRET, SNAP-m2 (VFT domain) inter-subunit sensor in HEK293T cells; conditions: for SNAP-m2 FRET response (PAM DRC) / SNAP-m2 FRET response (PAM DRC), Mean: Glutamate + 5μM LY487379; for SNAP-m2 FRET response (PAM DRC): individual cells, normalized to 1mM glutamate;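 on all read-outs here: apparent FRET efficiency from whole-membrane ROIs of single cells, corrected for donor bleed-through and background, ΔFRET as treatment minus pretreatment signal, recorded at room temperature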
[2] = molecular target: mGluR2 (Mus musculus, UniProt Q14BI2, A548F); test: Live-cell FRET, azi-CRD (cysteine-rich domain) sensor in HEK293T cells; conditions: for Mean normalized FRET response, azi-CRD PAM DRC: glutamate + 5μM LY487379, maximal response normalized to 1mM glutamate
[3] = molecular target: mGluR2 (Mus musculus, UniProt Q14BI2, INS715F); test: Live-cell FRET, azi-ECL2 (7TM domain, extracellular loop 2) sensor in HEK293T cells; conditions: for Mean normalized azi-ECL2 FRET response: glutamate + 5μM modulator, maximal response normalized to 1mM glutamate;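 on all read-outs here: Cy3/Cy5 click-labeled sensor, whole-membrane ROIs per cell, apparent FRET after bleed-through correction, ΔFRET as treatment minus pre-treatment signal, at room temperature, at least three biological replicates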
[4] = molecular target: T1, mGluR2; test: Functional calcium imaging, SNAP-mGluR2 (no FLAG-tag) with chimeric G protein Gqo5 in HEK293T cells; assay type: cell-based; design: Full length mGluR2 construct with an amber codon (TAG) mutation of amino acid A548 (azi-CRD) or N-terminal SNAP-tag (SNAP-mGluR2); host or cells: HEK293T; conditions: modulator alone; precluded analysis of glutamate potency and efficacy
[5] = 5μM LY487379, ([1 mM glutamate + modulator] - [1 mM glutamate]) × 100

Sequence of mGluR2 (Mus musculus, UniProt Q14BI2, A548F) (Q14BI2 19-872 A548F): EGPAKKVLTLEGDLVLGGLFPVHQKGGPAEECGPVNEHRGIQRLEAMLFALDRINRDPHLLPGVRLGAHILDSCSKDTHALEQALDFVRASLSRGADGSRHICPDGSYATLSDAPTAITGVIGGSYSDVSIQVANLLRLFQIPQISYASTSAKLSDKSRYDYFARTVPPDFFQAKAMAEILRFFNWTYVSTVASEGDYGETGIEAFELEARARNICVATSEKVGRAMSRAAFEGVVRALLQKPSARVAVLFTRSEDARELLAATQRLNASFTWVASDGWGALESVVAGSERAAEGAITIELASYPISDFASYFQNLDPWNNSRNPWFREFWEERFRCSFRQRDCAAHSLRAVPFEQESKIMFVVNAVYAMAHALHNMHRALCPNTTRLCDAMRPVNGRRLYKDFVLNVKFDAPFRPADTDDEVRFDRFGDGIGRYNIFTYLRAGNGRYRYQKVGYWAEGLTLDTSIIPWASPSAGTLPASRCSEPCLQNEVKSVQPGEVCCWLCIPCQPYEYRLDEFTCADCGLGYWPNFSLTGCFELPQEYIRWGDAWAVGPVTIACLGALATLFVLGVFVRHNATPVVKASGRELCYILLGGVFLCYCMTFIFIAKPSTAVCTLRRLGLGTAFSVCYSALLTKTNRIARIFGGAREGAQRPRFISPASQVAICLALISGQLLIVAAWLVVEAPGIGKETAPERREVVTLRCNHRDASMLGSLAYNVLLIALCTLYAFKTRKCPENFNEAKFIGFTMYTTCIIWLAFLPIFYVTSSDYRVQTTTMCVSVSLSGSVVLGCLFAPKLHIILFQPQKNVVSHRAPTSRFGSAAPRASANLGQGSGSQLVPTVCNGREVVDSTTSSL
Sequence of mGluR2 (Mus musculus, UniProt Q14BI2, INS715F) (Q14BI2 with tags, fused parts or gaps INS715F): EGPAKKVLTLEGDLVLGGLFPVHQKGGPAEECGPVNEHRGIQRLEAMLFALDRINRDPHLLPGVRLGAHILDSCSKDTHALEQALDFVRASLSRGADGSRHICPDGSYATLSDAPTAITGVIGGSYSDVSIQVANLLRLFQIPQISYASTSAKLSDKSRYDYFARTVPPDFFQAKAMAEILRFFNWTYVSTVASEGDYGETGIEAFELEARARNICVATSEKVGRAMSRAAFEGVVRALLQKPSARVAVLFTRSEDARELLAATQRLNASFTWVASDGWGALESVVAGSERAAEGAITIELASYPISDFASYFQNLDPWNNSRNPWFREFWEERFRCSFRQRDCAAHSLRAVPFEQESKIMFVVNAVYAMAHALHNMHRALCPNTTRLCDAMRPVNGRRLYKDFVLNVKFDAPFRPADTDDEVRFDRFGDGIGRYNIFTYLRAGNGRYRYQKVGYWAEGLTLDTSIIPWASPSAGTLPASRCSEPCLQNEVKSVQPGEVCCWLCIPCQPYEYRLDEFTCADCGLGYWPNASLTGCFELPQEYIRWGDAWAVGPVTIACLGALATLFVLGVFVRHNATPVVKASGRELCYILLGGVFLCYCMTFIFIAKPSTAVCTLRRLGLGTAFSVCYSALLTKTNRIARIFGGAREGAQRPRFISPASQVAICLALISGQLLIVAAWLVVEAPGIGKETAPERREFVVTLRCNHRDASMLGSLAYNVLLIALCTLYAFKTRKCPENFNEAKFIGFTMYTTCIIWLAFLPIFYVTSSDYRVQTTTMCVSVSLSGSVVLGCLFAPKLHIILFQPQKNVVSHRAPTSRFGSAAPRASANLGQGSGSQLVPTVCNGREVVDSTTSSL
T1 sequence (Q14BI2 19-872): as the sequence (Q14BI2 19-872 A548F) above, with F530A counted along it

SNAP-m2 - ΔEfficacy, Mean ΔEfficacy [1, 5]: 7.324
SNAP-m2 FRET response (PAM DRC) ([1]; log[Glutamate] (M) -3): -1.073
SNAP-m2 FRET response (PAM DRC), Mean ([1]; log[Glutamate] (M) -3): -1.073
SNAP-m2 FRET response (PAM DRC) ([1]; log[Glutamate] (M) -4.1549): -1.073 and -1.043 and -1.045 and -1.173
SNAP-m2 FRET response (PAM DRC), Mean ([1]; log[Glutamate] (M) -4.1549): -1.083
SNAP-m2 FRET response (PAM DRC) ([1]; log[Glutamate] (M) -4.52288): -1.073 and -1.028 and -1.065 and -1.205
SNAP-m2 FRET response (PAM DRC), Mean ([1]; log[Glutamate] (M) -4.52288): -1.093
SNAP-m2 FRET response (PAM DRC), Mean ([1]; log[Glutamate] (M) -5): -0.9075
SNAP-m2 FRET response (PAM DRC), Mean ([1]; log[Glutamate] (M) -5.39794): -0.5948
SNAP-m2 FRET response (PAM DRC), Mean ([1]; log[Glutamate] (M) -5.82391): -0.3038
SNAP-m2 FRET response (PAM DRC) ([1]; log[Glutamate] (M) -6.52288): -0.05434 and 0 and -0.02048 and -0.1132
SNAP-m2 FRET response (PAM DRC), Mean ([1]; log[Glutamate] (M) -6.52288): -0.047
SNAP-m2 FRET response (PAM DRC) ([1]; log[Glutamate] (M) -7): 0
SNAP-m2 FRET response (PAM DRC), Mean ([1]; log[Glutamate] (M) -7): 0
SNAP-m2 FRET response (PAM DRC) ([1]; log[Glutamate] (M) -7.30103): 0
SNAP-m2 FRET response (PAM DRC), Mean ([1]; log[Glutamate] (M) -7.30103): 0
SNAP-m2 FRET response (PAM DRC) ([1]; log[Glutamate] (M) -7.69897): 0
SNAP-m2 FRET response (PAM DRC), Mean ([1]; log[Glutamate] (M) -7.69897): 0
Mean max response (normalized max ΔFRET) ([1]; SNAP-m2, 1 mM glutamate + 5 μM modulator, normalized to 1 mM glutamate): 1.07
Mean ΔPotency ([1]; SNAP-m2, 5μM modulator, (([modulator + glutamate]EC50 – [glutamate] EC50)/[glutamate] EC50) × 100): -67.8391
Mean ΔEfficacy ([1]; SNAP-m2, 5μM modulator, ([1 mM glutamate + modulator] - [1 mM glutamate]) × 100): 7.324
Hill slope of glutamate titration ([1]; SNAP-m2 sensor, + 5 μM modulator): –1.43
azi-CRD - ΔEfficacy, Mean ΔEfficacy [2, 5]: 56.4462
Hill slope of glutamate titration ([2]; azi-CRD sensor, + 5 μM modulator): 0.91
Mean max response (normalized max ΔFRET) ([2]; azi-CRD, 1 mM glutamate + 5 μM modulator, normalized to 1 mM glutamate): 1.56
Mean ΔPotency ([2]; azi-CRD, 5μM modulator, (([modulator + glutamate]EC50 – [glutamate] EC50)/[glutamate] EC50) × 100): -61.3748
Mean normalized FRET response, azi-CRD PAM DRC ([2]; log[Glutamate] (M) -3): 1.564
Mean normalized FRET response, azi-CRD PAM DRC ([2]; log[Glutamate] (M) -4.1549): 1.506
Mean normalized FRET response, azi-CRD PAM DRC ([2]; log[Glutamate] (M) -4.52288): 1.431
Mean normalized FRET response, azi-CRD PAM DRC ([2]; log[Glutamate] (M) -5): 1.21
Mean normalized FRET response, azi-CRD PAM DRC ([2]; log[Glutamate] (M) -5.39794): 0.9243
Mean normalized FRET response, azi-CRD PAM DRC ([2]; log[Glutamate] (M) -5.82391): 0.548
Mean normalized FRET response, azi-CRD PAM DRC ([2]; log[Glutamate] (M) -6.52288): 0.2035
Mean normalized FRET response, azi-CRD PAM DRC ([2]; log[Glutamate] (M) -7): 0.1104
Mean normalized FRET response, azi-CRD PAM DRC ([2]; log[Glutamate] (M) -7.30103): 0.08348
Mean normalized FRET response, azi-CRD PAM DRC ([2]; log[Glutamate] (M) -7.69897): 0
azi-ECL2 - ΔEfficacy, Mean ΔEfficacy [3, 5]: 24.615
Mean ΔPotency ([3]; 5μM modulator, (([modulator + glutamate]EC50 – [glutamate] EC50)/[glutamate] EC50) × 100): -30.8994
Mean max response (normalized max ΔFRET) ([3]; azi-ECL2, 1 mM glutamate + 5 μM modulator, normalized to 1 mM glutamate): 1.25
Hill slope of glutamate titration ([3]; azi-ECL2 sensor, + 5 μM modulator): 0.98
Mean normalized azi-ECL2 FRET response ([3]; log[Glutamate] (M) -3): 1.246
Mean normalized azi-ECL2 FRET response ([3]; log[Glutamate] (M) -4.1549): 1.162
Mean normalized azi-ECL2 FRET response ([3]; log[Glutamate] (M) -4.52288): 1.05
Mean normalized azi-ECL2 FRET response ([3]; log[Glutamate] (M) -5): 0.9021
Mean normalized azi-ECL2 FRET response ([3]; log[Glutamate] (M) -5.39794): 0.6628
Mean normalized azi-ECL2 FRET response ([3]; log[Glutamate] (M) -5.82391): 0.3586
Mean normalized azi-ECL2 FRET response ([3]; log[Glutamate] (M) -6.52288): 0.0516
Mean normalized azi-ECL2 FRET response ([3]; log[Glutamate] (M) -7): 0.00565
Mean normalized azi-ECL2 FRET response ([3]; log[Glutamate] (M) -7.30103): 0
Mean normalized azi-ECL2 FRET response ([3]; log[Glutamate] (M) -7.69897): 0
Effect of modulator itself on intracellular calcium flux [4]: Direct activation of mGluR2
SMILES: COc1ccccc1Oc1ccc(N(Cc2cccnc2)S(=O)(=O)CC(F)(F)F)cc1 [LY487379, N -(4-(2-Methoxyphenoxy)phenyl)-N -(2,2,2− trifluoroethylsulfonyl)pyrid-3-ylmethylamine]
SNAP-m2 FRET response (PAM DRC) ([1]; log[Glutamate] (M) -5): -0.9102 and -0.7407 and -0.8397 and -1.14
SNAP-m2 FRET response (PAM DRC) ([1]; log[Glutamate] (M) -5.39794): -0.5434 and -0.4233 and -0.4506 and -0.9619
SNAP-m2 FRET response (PAM DRC) ([1]; log[Glutamate] (M) -5.82391): -0.2581 and -0.136 and -0.1638 and -0.657
azi-CRD - ΔEfficacy, individual cell responses ([2]; 5μM LY487379, single cells): 81.7927 and 91.1647 and 102.83 and 105.34 and 78.0041 and 66.6667 and 72.6804 and 69.5464 and 76.2911 and 41.9214 and 42.0188 and 53.8462 and 0 and 21.4575 and 34.4595 and 42.2449 and 30.2041 and 33.2258 and 28.7834
ΔPotency, individual cell ([2]; azi-CRD, 5μM modulator, calculated from individual cell responses): -86.3622 and -82.4274 and -82.7128 and -78.2764 and -89.1123 and -88.282 and -87.867 and -88.628 and -87.1232 and -72.2401 and -70.8565 and -64.63 and -55.982 and -66.7055 and -27.5303 and -19.9202 and -46.4693 and -21.7362 and -27.2709 and -11.7911 and -36.6107 and -57.7116
ΔPotency, individual cell responses ([3]; 5μM modulator, single cells, (([modulator + glutamate]EC50 – [glutamate] EC50)/[glutamate] EC50) × 100): -50.558 and -25.4476 and -23.8904 and -47.6382 and -34.9857 and -54.4511 and -26.0316 and -30.3706 and -10.8251 and 8.313 and -4.368 and -31.1486 and -23.7197 and -38.0027 and -24.5685 and -37.4665 and -50.1273 and -31.7846 and -24.8874 and -46.4706
ΔEfficacy, individual cell responses ([3]; 5μM modulator, single cells, ([1 mM glutamate + modulator] - [1 mM glutamate]) × 100): 52.1008 and 4.706 and 3.279 and -3.644 and 40.8403 and 19.2658 and 55.7571
Live-cell FRET max response normalized to 1mM glutamate ([3]; azi-ECL2 sensor, Glutamate + 5μM LY487379, individual values (N=7)): 1.4084 and 1.193 and 1.558 and 1.521 and 1.047 and 1.033 and 0.9636
